Measurements as given in the supplement of paper PMC10307832.

Compound: C=CCNC1=C2C[C@@H](C)C[C@H](OC)[C@H](O)[C@@H](C)/C=C(\C)[C@H](OC(N)=O)[C@@H](OC)/C=C\C=C(/C)C(=O)NC(=CC1=O)C2=O [17-AAG] + CC(C)C[C@H](NC(=O)[C@H](Cc1ccccc1)NC(=O)c1cnccn1)B(O)O [Bortezomib] (partner 0.002 µM)
Assay: relative viability (nuclei count vs DMSO), 5 days (fraction); higher = more cells survive
Method in brief: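 Lung cancer cell lines, seeded in 1536-well plates, were treated the following day by pin tool with a single drug or with five library-drug doses (not always all listed) in √10 steps on top of a fixed anchor-drug dose. Cells were fixed and nuclei stained in one step after 5 days, and nuclei were counted. Relative viability is the nuclei count for treated wells divided by that for vehicle wells, reported as medians of duplicate plates.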

| Cell Line | relative viability (first compound 0.00128 µM) | relative viability (first compound 0.004048 µM) | relative viability (first compound 0.0128 µM) | relative viability (first compound 0.04048 µM) | relative viability (first compound 0.128 µM) |
| --- | --- | --- | --- | --- | --- |
| H3255 | 0.864 | 0.722 | 0.46 | 0.237 | 0.205 |
| EPLC-272H | 0.89 | 0.821 | 0.97 | 0.855 | 0.171 |
| RERF-LC-KJ | 1.17 | 1.17 | 0.888 | 0.288 | 0.303 |
| EKVX | 1.06 | 0.971 | 0.994 | 0.421 | 0.149 |
| ChaGo-K-1 | 1.01 | 0.971 | 0.981 | 0.304 | 0.297 |
| NCI-H23 | 0.92 | 0.635 | 0.232 | 0.168 | 0.127 |
| EMC-BAC-2 | 1.15 | 1.11 | 1.13 | 1.01 | 0.209 |
| LOU-NH91 | 0.483 | 0.512 | 0.394 | 0.401 | 0.381 |
| LU99A | 1.06 | 1.05 | 0.672 | 0.445 | 0.119 |
| NCI-H520 | 0.512 | 0.58 | 0.251 | 0.14 | 0.0925 |
| 201T | 1.14 | 1.12 | 1.03 | 1.05 | 0.649 |
| NCI-H3122 | 0.926 | 0.954 | 0.506 | 0.488 | 0.177 |
| NCI-H1703 | 0.316 | 0.154 | 0.145 | 0.153 | 0.138 |
| NCI-H1755 | 0.966 | 0.9 | 0.817 | 0.391 | 0.189 |
| NCI-H2087 | 0.85 | 0.674 | 0.377 | 0.215 | 0.137 |
| NCI-H2228 | 0.88 | 0.304 | 0.137 | 0.167 | 0.135 |
| NCI-H838 | 0.962 | 0.653 | 0.124 | 0.136 | 0.0816 |

| Cell Line | relative viability (first compound 0.00128 µM) | relative viability (first compound 0.004048 µM) | relative viability (first compound 0.0128 µM) | relative viability (first compound 0.04048 µM) | relative viability (first compound 0.128 µM) |
| --- | --- | --- | --- | --- | --- |
| NCI-H661 | 0.857 | 0.912 | 0.781 | 0.637 | 0.393 |
| NCI-H596 | 0.991 | 0.974 | 1.09 | 0.994 | 0.844 |
| EBC-1 | 0.536 | 0.252 | 0.185 | 0.203 | 0.165 |
| NCI-H727 | 0.795 | 0.766 | 0.784 | 0.322 | 0.229 |
| NCI-H1299 | 1.06 | 0.977 | 1.01 | 0.948 | 0.665 |
| NCI-H1993 | 1.04 | 1.25 | 0.609 | 0.454 | 0.369 |
| PC-14 | 0.915 | 0.822 | 0.808 | 0.12 | 0.101 |
| NCI-H1437 | 0.606 | 0.389 | 0.176 | 0.123 | 0.0811 |
| LCLC-103H | 1.02 | 1.17 | 1.02 | 1.13 | 1.09 |
| NCI-H460 | 1.03 | 0.677 | 0.0227 | 0.0175 | 0.0128 |
| SW 1573 | 1.23 | 1.02 | 0.687 | 0.225 | 0.117 |
| BEN | 0.917 | 1.14 | 0.997 | 0.64 | 0.232 |
| LC-2-ad | 0.97 | 1.05 | 0.665 | 0.119 | 0.105 |
| COR-L23 | 1.12 | 0.948 | 0.946 | 0.408 | 0.0841 |
| NCI-H1650 | 0.217 | 0.219 | 0.181 | 0.224 | 0.197 |
| SK-LU-1 | 0.976 | 0.903 | 0.311 | 0.238 | 0.197 |
